Assay results from ChEMBL document CHEMBL3860052, “Anti-influenza activity of monoterpene-derived substituted hexahydro-2H-chromenes” (Bioorg Med Chem, 2016).
≈ marks a conversion by molar mass, not a printed value.

What was measured:
[1] = Antiviral activity against Influenza A virus (A/California/07/2009(H1N1)); assay type: functional
[2] = Antiviral activity against Influenza A virus (A/California/07/09(H1N1)) pdm09 infected in chicken erythrocytes incubated for 1 hr with supernatants from 1 hr compound pre-treated MDCK cells infected with Influenza A virus (A/California/07/2009(H1N1)) pdm09 for 48 hrs assessed as reduction in viral replication by hemagglutination assay; assay type: functional, cell-based
[3] = Cytotoxicity against MDCK cells assessed as reduction in cell viability after 48 hrs by MTT assay; assay type: toxicity, cell-based, Canis lupus familiaris; conditions: dog
[4] = Selectivity index, ratio of CC50 for MDCK cells to IC50 for Influenza A virus (A/California/07/09(H1N1)) pdm09; assay type: functional

SMILES | IC50 [1] [µg/mL] | IC50 [2] [µM] | CC50 at 48 h [3] [µM] | Ratio CC50/IC50 [4]
C=C(C)[C@@H]1CC=C(C)[C@@H](O)[C@@H]1O | 20 (≈ 119 µM) | – | – | –
CC(N)C12CC3CC(CC(C3)C1)C2 (centres undefined) [RIMANTADINE] | – | 44 | 350 | 8
